The values that follow come from patent US20210393645A1, “TREATMENT FOR PROGRESSIVE MULTIPLE SCLEROSIS” (UTI LIMITED PARTNERSHIP, priority 2016, published 2021).

Counter-ions that a name gives are not always drawn.

The first assay has as its system human neurons. Description: Iron (FeSO4) mediated neurotoxicity screening, MAP-2 positive neurons counted. Type of assay: cell-based.
Conditions: not given
How it is done: Human neurons were isolated from brain tissues of therapeutically aborted 15-20 week old fetuses, in accordance with ethics approval of the University of Calgary ethics committee, after written informed consent of the pregnant donors. Neurons were isolated as previously described (Vecil et al., 2000) brain specimens were washed in phosphate buffered saline (PBS) to remove blood, followed by removal of meninges. […] Thereafter, the digestion was stopped by addition of 4 ml fetal calf serum (FCS). […] Cells were cultured in feeding medium of minimal essential medium (MEM) supplemented with 10% fetal bovine serum (FBS), 1 μM sodium pyruvate, 10 μM glutamine, 1× non-essential amino acids, 0.1% dextrose and 1% penicillin/streptomycin (all culture supplements from Invitrogen, Burlington, Canada). […] For experiments, the neuron-enriched cultures were retrypsinized and cells were plated in poly-L-ornithine pre-coated 96-well plates at a density of 100,000 cells/well in 100 μl of the complete medium supplemented with cytosine arabinoside. […] All conditions were performed in quadruplicates. A day later cells were fixed using 4% paraformaldehyde (PFA) and stored in PBS in 4° C.
Briefly, there were 80 compounds located in specific wells on each plate (e. g. B07). […] Each compound was supplied at a concentration of 10 mM dissolved in DMSO.
After filtering with a 0.2 μm filter, FeSO4 was added to cells in a final concentration of 25-50 μM in a volume of 50 μl medium to the cells. Rotenone was dissolved in dimethyl sulfoxide (DMSO) and used in a final concentration of 10 μM.
Staining was performed at room temperature. A blocking buffer was first introduced for 1 h followed by incubation with primary antibody overnight in 4° C.
Cell nuclei were stained with Hoechst S769121 (nuclear yellow). Cells were stored in 4° C. in the dark before imaging.
Images were taken using the automated ImageXpress® imaging system (Molecular Devices, Sunnyvale, Calif.) through a 10x objective microscope lens, displaying 4 or 9 sites per well. […] Cells were defined according to fluorescence intensity and size at different wavelengths. Data from all sites per well were averaged to one data point.
Neurons were pre-incubated with each compound for 1 h followed by application of FeSO4.
Consider `CC(C)[N+]1(C)[C@@H]2CC[C@H]1CC(OC(=O)C(CO)c1ccccc1)C2.[Br-]` (stereo partly drawn) [IPRATROPIUM BROMIDE], for which the “Drug % control (mean): number of neurons normalized to untreated control” value worked out at 63.39%.

The assay is the same for the next values; noted with them: Homo sapiens, Neuron, 24 h, read-out: Drug % control (mean): number of neurons normalized to untreated control.
As for `Clc1cccc(Cl)c1N=C1NCCN1` [CLONIDINE HYDROCHLORIDE], the viability at 10 µM came out at 7.47%.

Turning to `COc1cc2c(c(OC)c1OC)-c1ccc(OC)c(=O)cc1[C@@H](NC(C)=O)CC2` [COLCHICINE], the viability at 10 µM came to 3.12%.

Take `O=P1(N(CCCl)CCCl)NCCCO1` (stereo not drawn) [CYCLOPHOSPHAMIDE HYDRATE]: the viability at 10 µM was found to be 6.39%.

Still in this assay, the particulars now being: Homo sapiens, Neuron; drug 10 μM 1 h before FeSO4 25 or 50 μM; MAP-2 neurons after 24 h; read-out: Drug % control (mean): number of neurons normalized to untreated control.
Turning to `CN1CCC[C@@H]1CCO[C@](C)(c1ccccc1)c1ccc(Cl)cc1` [CLEMASTINE], the viability at 10 µM was 6.19%.

In the case of `Clc1ccccc1C(c1ccccc1)(c1ccccc1)n1ccnc1` [CLOTRIMAZOLE], the viability at 10 µM is 12.4%.

For `Cc1onc(-c2ccccc2Cl)c1C(=O)N[C@@H]1C(=O)N2[C@@H]1SC(C)(C)[C@@H]2C(=O)O` [CLOXACILLIN SODIUM], the viability at 10 µM stood at 28.4%.

With `CN1CCN(C2=Nc3cc(Cl)ccc3Nc3ccccc32)CC1` [CLOZAPINE], the viability at 10 µM came out at 101%.

As for `C#C[C@]1(O)CC[C@H]2[C@@H]3CCC4=Cc5oncc5C[C@]4(C)[C@H]3CC[C@@]21C` [DANAZOL], the viability at 10 µM was 4.37%.

In the case of `Nc1ccc(S(=O)(=O)c2ccc(N)cc2)cc1` [DAPSONE], the viability at 10 µM is 18.6%.

`Cc1cc(N)c2ccccc2[n+]1CCCCCCCCCC[n+]1c(C)cc(N)c2ccccc21` [DEQUALINIUM CHLORIDE]: the viability at 10 µM was determined as 10.5%.

As for `COc1ccc2c(c1)[C@]13CCCC[C@@H]1[C@H](C2)N(C)CC3` [DEXTROMETHORPHAN HYDROBROMIDE], the viability at 10 µM worked out at 3.49%.

Consider `O=C(O)Cc1ccccc1Nc1c(Cl)cccc1Cl` [DICLOFENAC SODIUM], for which the viability at 10 µM worked out at 5.92%.

`O=C(O)c1cc(-c2ccc(F)cc2F)ccc1O` [DIFLUNISAL]: the viability at 10 µM was determined as 4.12%.

Consider `CN(C)CCOC(c1ccccc1)c1ccccc1` [DIPHENHYDRAMINE HYDROCHLORIDE], for which the viability at 10 µM was 74.7%.

Take `CC(C)N(CCC(C(N)=O)(c1ccccc1)c1ccccn1)C(C)C` (stereo not drawn) [DISOPYRAMIDE PHOSPHATE]: the viability at 10 µM amounted to 4.63%.

As to `C[C@H]1c2cccc(O)c2C(=O)C2=C(O)[C@]3(O)C(=O)C(C(N)=O)=C(O)[C@@H](N(C)C)[C@@H]3[C@@H](O)[C@@H]21` [DOXYCYCLINE HYDROCHLORIDE], the viability at 10 µM came out at 12.7%.

As for `CC[N+](C)(C)c1cccc(O)c1` [EDROPHONIUM CHLORIDE], the viability at 10 µM was 44%.

Take `CCOC(=O)[C@H](CCc1ccccc1)N[C@@H](C)C(=O)N1CCC[C@H]1C(=O)O` [ENALAPRIL MALEATE]: the viability at 10 µM was determined as 41%.

As for `C[C@@H](CO)NC(=O)[C@@H]1C=C2c3cccc4[nH]cc(c34)C[C@H]2N(C)C1` [ERGONOVINE MALEATE], the viability at 10 µM came to 42.7%.

As to `CCC(=O)O[C@H]1[C@H](O[C@@H]2[C@@H](C)[C@H](O[C@H]3C[C@@](C)(OC)[C@@H](O)[C@H](C)O3)[C@@H](C)C(=O)O[C@H](CC)[C@@](C)(O)[C@H](O)[C@@H](C)C(=O)[C@H](C)C[C@@]2(C)O)O[C@H](C)C[C@@H]1N(C)C` [ERYTHROMYCIN ESTOLATE], the viability at 10 µM worked out at 56.7%.

Regarding `CCC1(C)CC(=O)NC1=O` (stereo not drawn) [ETHOSUXIMIDE], the viability at 10 µM turned out to be 74.3%.

With `CCc1cccc2c3c([nH]c12)C(CC)(CC(=O)O)OCC3` (stereo not drawn) [ETODOLAC], the viability at 10 µM came to 34.4%.

In the case of `O=C1[C@H](CC[C@H](O)c2ccc(F)cc2)[C@@H](c2ccc(O)cc2)N1c1ccc(F)cc1` [EZETIMIBE], the viability at 10 µM was 50.5%.

Take `CC(=O)OCC(CCn1cnc2cnc(N)nc21)COC(C)=O` [FAMCICLOVIR]: the viability at 10 µM came to 91%.

As for `CNCCC(Oc1ccc(C(F)(F)F)cc1)c1ccccc1` (stereo not drawn) [FLUOXETINE], the viability at 10 µM is 81.4%.

Turning to `OCCN1CCN(CCCN2c3ccccc3Sc3ccc(C(F)(F)F)cc32)CC1` [FLUPHENAZINE HYDROCHLORIDE], the viability at 10 µM was 12.1%.

In the case of `CC(C(=O)O)c1ccc(-c2ccccc2)c(F)c1` (stereo not drawn) [FLURBIPROFEN], the viability at 10 µM was 4.63%.

In the case of `C[C@@H]1O[C@@H]1P(=O)(O)O` [FOSFOMYCIN], the viability at 10 µM was found to be 31.2%.

Take `NS(=O)(=O)c1cc(C(=O)O)c(NCc2ccco2)cc1Cl` [FUROSEMIDE]: the viability at 10 µM is 3.96%.

Take `Cc1ccc(C)c(OCCCC(C)(C)C(=O)O)c1` [GEMFIBROZIL]: the viability at 10 µM came to 5.05%.

As for `Cc1ccc(S(=O)(=O)NC(=O)NN2CC3CCCC3C2)cc1` (stereo not drawn) [GLICLAZIDE], the viability at 10 µM was 47.3%.

Consider `COc1ccc(Cl)cc1C(=O)NCCc1ccc(S(=O)(=O)NC(=O)NC2CCCCC2)cc1` [GLYBURIDE], for which the viability at 10 µM was found to be 45.2%.

As for `COc1ccccc1OCC(O)CO` (stereo not drawn) [GUAIFENESIN], the viability at 10 µM was 3.28%.

For `O=C(CCCN1CCC(O)(c2ccc(Cl)cc2)CC1)c1ccc(F)cc1` [HALOPERIDOL], the viability at 10 µM came out at 6.12%.

Turning to `CCCCCCc1ccc(O)cc1O` [HEXYLRESORCINOL], the viability at 10 µM was 71.5%.

For the compound `CN1CCC(OC(c2ccccc2)c2ccccc2)CC1` [HYDROCHLORIDE], the viability at 10 µM turned out to be 4.61%.

As for `NS(=O)(=O)c1cc2c(cc1Cl)NCNS2(=O)=O` [HYDROCHLOROTHIAZIDE], the viability at 10 µM turned out to be 2.55%.

Take `CCN(CCO)CCCC(C)Nc1ccnc2cc(Cl)ccc12` (stereo not drawn) [HYDROXYCHLOROQUINE SULFATE]: the viability at 10 µM was found to be 75.9%.

Turning to `NC(=O)NO` [HYDROXYUREA], the viability at 10 µM stood at 3.31%.

Turning to `OCCOCCN1CCN(C(c2ccccc2)c2ccc(Cl)cc2)CC1` (stereo not drawn) [HYDROXYZINE PAMOATE], the viability at 10 µM was 4.01%.

Regarding `CC(C)Cc1ccc(C(C)C(=O)O)cc1` (stereo not drawn) [IBUPROFEN], the viability at 10 µM turned out to be 2.48%.

For the compound `COc1ccc2c(c1)c(CC(=O)O)c(C)n2C(=O)c1ccc(Cl)cc1` [INDOMETHACIN], the viability at 10 µM was 4.52%.

Take `NNC(=O)c1ccncc1` [ISONIAZID]: the viability at 10 µM turned out to be 2.41%.

Take `CC(C(=O)O)c1cccc(C(=O)c2ccccc2)c1` (stereo not drawn) [KETOPROFEN]: the viability at 10 µM amounted to 44.3%.

As for `O=C(c1ccccc1)c1ccc2n1CCC2C(=O)O` (stereo not drawn) [KETOROLAC TROMETHAMINE], the viability at 10 µM turned out to be 52.4%.

On to `CN1CCC(=C2c3ccccc3CC(=O)c3sccc32)CC1` [KETOTIFEN FUMARATE], for which the viability at 10 µM amounted to 1.77%.

Consider `Cc1c(OCC(F)(F)F)ccnc1C[S+]([O-])c1nc2ccccc2[nH]1` (stereo not drawn) [LANSOPRAZOLE], for which the viability at 10 µM worked out at 63.9%.

Regarding `N[C@@H](Cc1ccc(O)c(O)c1)C(=O)O` [LEVODOPA], the viability at 10 µM was 81.2%.

As for `C[C@H]1COc2c(N3CCN(C)CC3)c(F)cc3c(=O)c(C(=O)O)cn1c23` [LEVOFLOXACIN], the viability at 10 µM was 56.4%.

Consider `CN(C)C(=O)C(CCN1CCC(O)(c2ccc(Cl)cc2)CC1)(c1ccccc1)c1ccccc1` [LOPERAMIDE HYDROCHLORIDE], for which the viability at 10 µM was 55.5%.

Regarding `CCOC(=O)N1CCC(=C2c3ccc(Cl)cc3CCc3cccnc32)CC1` [LORATADINE], the viability at 10 µM came out at 44.3%.

The assay is the same for the next values; noted with them: drug 10 μM 1 h before FeSO4 25 or 50 μM; MAP-2 neurons after 24 h.
As to `CN(C)CCOC(c1ccccc1)c1ccccc1.Cn1c(=O)c2[nH]c(Cl)nc2n(C)c1=O` [DIMENHYDRINATE], the “Drug % control (mean): number of neurons normalized to untreated control” value is reported as 36.53%.

As to `Nc1nc(=O)c2c([nH]1)NCC(CNc1ccc(C(=O)N[C@@H](CCC(=O)[O-])C(=O)[O-])cc1)N2C=O.[Ca+2]` (stereo partly drawn) [LEUCOVORIN CALCIUM], the “Drug % control (mean): number of neurons normalized to untreated control” value was found to be 24.84%.
